Results on four compounds are retold here after patent US6809065B2, “Herbicide containing substituted pyrazole derivative as active ingredient” (SDS Biotech K.K., priority 2001, dated 2004).

SMILES strings stand for the structures.

In data set [1] the test system is rice (Oryza sative, variety: Koshihikari). The experiment in a line: Paddy field treatment (Test Example 3), crop. The format is in vivo, Oryza sativa. The settings on record: transplanted rice two-leaf period, water surface treatment 10th day after transplantation, 1 kg active ingredient per hectare, evaluated 21st day, lower index = higher safety. In outline: (§1)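 Index scoring of herbicidal effect and rice safety 21 days after treatment. The wettable powder, dosed at 1 kg a.i./ha, was dripped onto flooded pots (4 cm water) 10 days after transplanting two-leaf Koshihikari rice. Weed seeds had been sown into the puddled soil.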

Data set [2] has as its system Setaria viridis. The experiment in a line: Upland soil treatment (Test Example 2). It counts as in vivo. The conditions noted are these: soil surface treatment next day after sowing, wettable powder, 1 kg active ingredient per hectare, evaluated 21st day after application. In outline:
(§2)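 Index rating at day 21 after a single pre-emergence soil-surface application, 1 kg a.i./ha, made the day after sowing in upland soil; for crops a lower index indicates higher safety.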

For data set [3], the system named is Chenopodium album. The experiment in a line: Upland soil treatment (Test Example 2). It counts as in vivo. The settings on record: soil surface treatment next day after sowing, wettable powder, 1 kg active ingredient per hectare, evaluated 21st day after application. In outline:
as §2

Data set [4] relates to Digitaria adscendens. The data set is described as follows: Upland soil treatment (Test Example 2). The format is in vivo. The settings on record: soil surface treatment next day after sowing, wettable powder, 1 kg active ingredient per hectare, evaluated 21st day after application. In outline: as §2
Data set [5] concerns Stellaria media. The data set is described as follows: Upland soil treatment (Test Example 2). The format is in vivo. The conditions noted are these: soil surface treatment next day after sowing, wettable powder, 1 kg active ingredient per hectare, evaluated 21st day after application. In a few lines:
as §2

Data set [6] concerns soybean (Glycine max). The data set is described as follows: Upland field foliage treatment (Test Example 1), crop. The format is in vivo. The conditions noted are these: foliage treatment 14th day after sowing, 1 kg active ingredient per hectare, evaluated 21st day, lower index = higher safety. In a few lines:
(§3)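 Scored on an index 21 days after treatment: a high value on weeds means more herbicidal effect, and a low value on crops means more crop safety. Treatment was a foliar spray of water-diluted wettable powder at 1 kg a.i./ha, applied to plants 14 days after sowing in upland soil.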

For data set [7], the system named is wheat (Triticum aestivum). The data set is described as above. The conditions noted are these: foliage treatment 14th day after sowing, 1 kg active ingredient per hectare, evaluated 21st day, lower index = higher safety. The format is in vivo. In outline: as §3
The subject of the next data set is Echinochloa spp. The experiment in a line: Paddy field treatment (Test Example 3). The settings on record: paddy pot, submerged 4 cm, dropped on water surface 10th day after transplantation, 1 kg active ingredient per hectare, evaluated 21st day. It counts as in vivo, Echinochloa crusgalli. In outline:
as §1

The test system of data set [8] is soybean (Glycine max). The data set is described as follows: Upland soil treatment (Test Example 2), crop. It counts as in vivo. The settings on record: soil surface treatment next day after sowing, 1 kg active ingredient per hectare, evaluated 21st day, lower index = higher safety. In a few lines:
as §2

Data set [9] deals with wheat (Triticum aestivum). The data set is described as follows: Upland soil treatment (Test Example 2), crop. The format is in vivo. The settings on record: soil surface treatment next day after sowing, 1 kg active ingredient per hectare, evaluated 21st day, lower index = higher safety. In outline:
as §2

The subject of data set [10] is Setaria viridis. The experiment in a line: Upland field foliage treatment (Test Example 1). It counts as in vivo. The conditions noted are these: foliage treatment 14th day after sowing, wettable powder, 1 kg active ingredient per hectare, evaluated 21st day after application. In outline:
as §3

Data set [11] relates to Chenopodium album. The data set is described as follows: Upland field foliage treatment (Test Example 1). The settings on record: foliage treatment 14th day after sowing, wettable powder, 1 kg active ingredient per hectare, evaluated 21st day after application. It counts as in vivo. In outline: as §3
The subject of data set [12] is Digitaria adscendens. The experiment in a line: Upland field foliage treatment (Test Example 1). It counts as in vivo. The conditions noted are these: foliage treatment 14th day after sowing, wettable powder, 1 kg active ingredient per hectare, evaluated 21st day after application. In a few lines: as §3
Data set [13] relates to Stellaria media. The experiment in a line: Upland field foliage treatment (Test Example 1). It counts as in vivo. The conditions noted are these: foliage treatment 14th day after sowing, wettable powder, 1 kg active ingredient per hectare, evaluated 21st day after application. In a few lines: as §3
Another data set relates to Ammannia multiflora. The experiment in a line: Paddy field treatment (Test Example 3). The settings on record: paddy pot, submerged 4 cm, dropped on water surface 10th day after transplantation, 1 kg active ingredient per hectare, evaluated 21st day. The format is in vivo. In a few lines:
as §1

For a further data set, the system named is Scirpus juncoides. The data set is described as follows: Paddy field treatment (Test Example 3). The settings on record: paddy pot, submerged 4 cm, dropped on water surface 10th day after transplantation, 1 kg active ingredient per hectare, evaluated 21st day. The format is in vivo. In a few lines: as §1
The next data set deals with Monochoria vaginalis. The data set is described as follows: Paddy field treatment (Test Example 3). The format is in vivo. The settings on record: paddy pot, submerged 4 cm, dropped on water surface 10th day after transplantation, 1 kg active ingredient per hectare, evaluated 21st day. In outline:
as §1

With `COC=C(Cn1nc(-c2ccc(Cl)c(Cl)c2)cc1C)C(=O)OC` [Compound 10], the “Herbicidal activity Oryza sativa” value in data set [1] was 0 (herbicidal effect of not less than 0% by weight and less than 10% by weight). For the same compound, the “Herbicidal activity Setaria viridis” value in the data set with Setaria viridis [2] was 4 (herbicidal effect of not less than 70% by weight and less than 90% by weight); in the data set on Setaria viridis [10], 4 (herbicidal effect of not less than 70% by weight and less than 90% by weight). Moreover, the “Herbicidal activity Chenopodium album” value with Chenopodium album [3] is 4 (herbicidal effect of not less than 70% by weight and less than 90% by weight); in the data set with Chenopodium album [11], 4 (herbicidal effect of not less than 70% by weight and less than 90% by weight). For the same compound, the “Herbicidal activity Digitaria adscendens” value was 5 (herbicidal effect of not less than 90% by weight) in the data set with Digitaria adscendens [4]; 4 (herbicidal effect of not less than 70% by weight and less than 90% by weight) with Digitaria adscendens [12]. Also, the “Herbicidal activity Stellaria media” value is 4 (herbicidal effect of not less than 70% by weight and less than 90% by weight) in the data set with Stellaria media [5]; 4 (herbicidal effect of not less than 70% by weight and less than 90% by weight) in the data set with Stellaria media [13]. For the same compound, the “Herbicidal activity Glycine max” value with soybean (Glycine max) [6] was 0 (herbicidal effect of not less than 0% by weight and less than 10% by weight); in the data set with soybean (Glycine max) [8] it was 0 (herbicidal effect of not less than 0% by weight and less than 10% by weight). Besides, the “Herbicidal activity Triticum aestivum” value in data set [7] is 0 (herbicidal effect of not less than 0% by weight and less than 10% by weight); in [9], 0 (herbicidal effect of not less than 0% by weight and less than 10% by weight). In addition, the “Herbicidal activity Echinochloa spp.” value with Echinochloa spp. was 3 (herbicidal effect of not less than 50% by weight and less than 70% by weight). Also, the “Herbicidal activity Ammannia multiflora” value in the data set on Ammannia multiflora was 3 (herbicidal effect of not less than 50% by weight and less than 70% by weight). In addition, the “Herbicidal activity Scirpus juncoides” value with Scirpus juncoides was 3 (herbicidal effect of not less than 50% by weight and less than 70% by weight). Besides, the “Herbicidal activity Monochoria vaginalis” value in the data set with Monochoria vaginalis was 3 (herbicidal effect of not less than 50% by weight and less than 70% by weight).

`COC=C(Cn1nc(-c2cc(Cl)cc(Cl)c2)cc1C)C(=O)OC` [Compound 11]: the “Herbicidal activity Oryza sativa” value in [1] was 0 (herbicidal effect of not less than 0% by weight and less than 10% by weight). Besides, the “Herbicidal activity Setaria viridis” value was 4 (herbicidal effect of not less than 70% by weight and less than 90% by weight) in the data set with Setaria viridis [2]; 4 (herbicidal effect of not less than 70% by weight and less than 90% by weight) in the data set on Setaria viridis [10]. The “Herbicidal activity Chenopodium album” value with Chenopodium album [3] was 4 (herbicidal effect of not less than 70% by weight and less than 90% by weight); in the data set on Chenopodium album [11] it was 4 (herbicidal effect of not less than 70% by weight and less than 90% by weight). Also, the “Herbicidal activity Digitaria adscendens” value in the data set on Digitaria adscendens [4] was 4 (herbicidal effect of not less than 70% by weight and less than 90% by weight); in the data set with Digitaria adscendens [12], 4 (herbicidal effect of not less than 70% by weight and less than 90% by weight). For the same compound, the “Herbicidal activity Stellaria media” value with Stellaria media [5] was 4 (herbicidal effect of not less than 70% by weight and less than 90% by weight); in the data set on Stellaria media [13], 4 (herbicidal effect of not less than 70% by weight and less than 90% by weight). Moreover, the “Herbicidal activity Glycine max” value is 0 (herbicidal effect of not less than 0% by weight and less than 10% by weight) with soybean (Glycine max) [6]; 0 (herbicidal effect of not less than 0% by weight and less than 10% by weight) in the data set with soybean (Glycine max) [8]. For the same compound, the “Herbicidal activity Triticum aestivum” value in [7] is 0 (herbicidal effect of not less than 0% by weight and less than 10% by weight); in data set [9], 0 (herbicidal effect of not less than 0% by weight and less than 10% by weight). Moreover, the “Herbicidal activity Echinochloa spp.” value in the data set with Echinochloa spp. is 3 (herbicidal effect of not less than 50% by weight and less than 70% by weight). Moreover, in the data set with Ammannia multiflora, the “Herbicidal activity Ammannia multiflora” value was 3 (herbicidal effect of not less than 50% by weight and less than 70% by weight). Besides, the “Herbicidal activity Scirpus juncoides” value in the data set on Scirpus juncoides is 3 (herbicidal effect of not less than 50% by weight and less than 70% by weight). The “Herbicidal activity Monochoria vaginalis” value in the data set on Monochoria vaginalis was 3 (herbicidal effect of not less than 50% by weight and less than 70% by weight).

`COC=C(Cn1nc(-c2ccccc2)c(Cl)c1C)C(=O)OC` [Compound 12]: in [1], the “Herbicidal activity Oryza sativa” value was 0 (herbicidal effect of not less than 0% by weight and less than 10% by weight). Moreover, the “Herbicidal activity Setaria viridis” value was 4 (herbicidal effect of not less than 70% by weight and less than 90% by weight) in the data set with Setaria viridis [2]; 4 (herbicidal effect of not less than 70% by weight and less than 90% by weight) with Setaria viridis [10]. Further, the “Herbicidal activity Chenopodium album” value with Chenopodium album [3] and in the data set with Chenopodium album [11] was 5 (herbicidal effect of not less than 90% by weight) each time. Further, the “Herbicidal activity Digitaria adscendens” value with Digitaria adscendens [4] and in the data set with Digitaria adscendens [12] was 5 (herbicidal effect of not less than 90% by weight) throughout. Moreover, the “Herbicidal activity Stellaria media” value is 4 (herbicidal effect of not less than 70% by weight and less than 90% by weight) in the data set on Stellaria media [5]; 5 (herbicidal effect of not less than 90% by weight) in the data set with Stellaria media [13]. The “Herbicidal activity Glycine max” value with soybean (Glycine max) [6] is 1 (herbicidal effect of not less than 10% by weight and less than 30% by weight); in the data set on soybean (Glycine max) [8], 0 (herbicidal effect of not less than 0% by weight and less than 10% by weight). The “Herbicidal activity Triticum aestivum” value is 0 (herbicidal effect of not less than 0% by weight and less than 10% by weight) in data set [7]; 0 (herbicidal effect of not less than 0% by weight and less than 10% by weight) in [9]. Moreover, the “Herbicidal activity Echinochloa spp.” value in the data set with Echinochloa spp. is 4 (herbicidal effect of not less than 70% by weight and less than 90% by weight). In the data set on Ammannia multiflora, the “Herbicidal activity Ammannia multiflora” value is recorded as 5 (herbicidal effect of not less than 90% by weight). In the data set on Scirpus juncoides, the “Herbicidal activity Scirpus juncoides” value was 4 (herbicidal effect of not less than 70% by weight and less than 90% by weight). The “Herbicidal activity Monochoria vaginalis” value in the data set with Monochoria vaginalis was 5 (herbicidal effect of not less than 90% by weight).

As for `COC=C(Cn1cc(C)c(-c2ccccc2)n1)C(=O)OC` [Compound 13], in [1], the “Herbicidal activity Oryza sativa” value is 0 (herbicidal effect of not less than 0% by weight and less than 10% by weight). For the same compound, the “Herbicidal activity Setaria viridis” value in the data set with Setaria viridis [2] and with Setaria viridis [10] was 5 (herbicidal effect of not less than 90% by weight) throughout. In addition, the “Herbicidal activity Chenopodium album” value in the data set with Chenopodium album [3] and with Chenopodium album [11] was 5 (herbicidal effect of not less than 90% by weight) in each case. In addition, the “Herbicidal activity Digitaria adscendens” value with Digitaria adscendens [4] and with Digitaria adscendens [12] was 5 (herbicidal effect of not less than 90% by weight) each time. In addition, the “Herbicidal activity Stellaria media” value in the data set with Stellaria media [5] and in the data set on Stellaria media [13] was 5 (herbicidal effect of not less than 90% by weight) throughout. For the same compound, the “Herbicidal activity Glycine max” value with soybean (Glycine max) [6] was 0 (herbicidal effect of not less than 0% by weight and less than 10% by weight); in the data set with soybean (Glycine max) [8], 0 (herbicidal effect of not less than 0% by weight and less than 10% by weight). Moreover, the “Herbicidal activity Triticum aestivum” value in data set [7] was 0 (herbicidal effect of not less than 0% by weight and less than 10% by weight); in data set [9], 0 (herbicidal effect of not less than 0% by weight and less than 10% by weight). For the same compound, in the data set on Echinochloa spp., the “Herbicidal activity Echinochloa spp.” value was 5 (herbicidal effect of not less than 90% by weight). For the same compound, the “Herbicidal activity Ammannia multiflora” value in the data set with Ammannia multiflora is on record as 5 (herbicidal effect of not less than 90% by weight). The “Herbicidal activity Scirpus juncoides” value with Scirpus juncoides is recorded as 5 (herbicidal effect of not less than 90% by weight). Also, the “Herbicidal activity Monochoria vaginalis” value in the data set with Monochoria vaginalis is listed as 5 (herbicidal effect of not less than 90% by weight).
